# Patent US8815882B2, “Pyrazole aminopyrimidine derivatives as LRRK2 modulators” (Genentech, Inc., priority 2010, dated 2014)
# Target: T1, LRRK2 (Homo sapiens, UniProt Q5S007, G2019S)
# T1 construct: purchased Invitrogen PV4882 (lot 567054A)
# Assay: In Vitro LRRK2 Assay (LabChip 3000, fluorescently-labeled peptide substrate, ATP)
# Format: biochemical
# Conditions: Table 9; LRRK2 Ki (micromolar); read-out: LRRK2 Ki (KI)
# Method in brief: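 LRRK2, fluorescent peptide substrate (diluted to 4 μM before mixing), ATP and compound were incubated 2 h in the dark, then stopped. Phosphorylated and unphosphorylated peptide were separated by capillary electrophoresis and quantified by fluorescence. Ki was fitted with a tight-binding equation including enzyme concentration, S and Km; IC50 or percent inhibition were also reported.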
# T1 sequence (Q5S007 whole entry G2019S): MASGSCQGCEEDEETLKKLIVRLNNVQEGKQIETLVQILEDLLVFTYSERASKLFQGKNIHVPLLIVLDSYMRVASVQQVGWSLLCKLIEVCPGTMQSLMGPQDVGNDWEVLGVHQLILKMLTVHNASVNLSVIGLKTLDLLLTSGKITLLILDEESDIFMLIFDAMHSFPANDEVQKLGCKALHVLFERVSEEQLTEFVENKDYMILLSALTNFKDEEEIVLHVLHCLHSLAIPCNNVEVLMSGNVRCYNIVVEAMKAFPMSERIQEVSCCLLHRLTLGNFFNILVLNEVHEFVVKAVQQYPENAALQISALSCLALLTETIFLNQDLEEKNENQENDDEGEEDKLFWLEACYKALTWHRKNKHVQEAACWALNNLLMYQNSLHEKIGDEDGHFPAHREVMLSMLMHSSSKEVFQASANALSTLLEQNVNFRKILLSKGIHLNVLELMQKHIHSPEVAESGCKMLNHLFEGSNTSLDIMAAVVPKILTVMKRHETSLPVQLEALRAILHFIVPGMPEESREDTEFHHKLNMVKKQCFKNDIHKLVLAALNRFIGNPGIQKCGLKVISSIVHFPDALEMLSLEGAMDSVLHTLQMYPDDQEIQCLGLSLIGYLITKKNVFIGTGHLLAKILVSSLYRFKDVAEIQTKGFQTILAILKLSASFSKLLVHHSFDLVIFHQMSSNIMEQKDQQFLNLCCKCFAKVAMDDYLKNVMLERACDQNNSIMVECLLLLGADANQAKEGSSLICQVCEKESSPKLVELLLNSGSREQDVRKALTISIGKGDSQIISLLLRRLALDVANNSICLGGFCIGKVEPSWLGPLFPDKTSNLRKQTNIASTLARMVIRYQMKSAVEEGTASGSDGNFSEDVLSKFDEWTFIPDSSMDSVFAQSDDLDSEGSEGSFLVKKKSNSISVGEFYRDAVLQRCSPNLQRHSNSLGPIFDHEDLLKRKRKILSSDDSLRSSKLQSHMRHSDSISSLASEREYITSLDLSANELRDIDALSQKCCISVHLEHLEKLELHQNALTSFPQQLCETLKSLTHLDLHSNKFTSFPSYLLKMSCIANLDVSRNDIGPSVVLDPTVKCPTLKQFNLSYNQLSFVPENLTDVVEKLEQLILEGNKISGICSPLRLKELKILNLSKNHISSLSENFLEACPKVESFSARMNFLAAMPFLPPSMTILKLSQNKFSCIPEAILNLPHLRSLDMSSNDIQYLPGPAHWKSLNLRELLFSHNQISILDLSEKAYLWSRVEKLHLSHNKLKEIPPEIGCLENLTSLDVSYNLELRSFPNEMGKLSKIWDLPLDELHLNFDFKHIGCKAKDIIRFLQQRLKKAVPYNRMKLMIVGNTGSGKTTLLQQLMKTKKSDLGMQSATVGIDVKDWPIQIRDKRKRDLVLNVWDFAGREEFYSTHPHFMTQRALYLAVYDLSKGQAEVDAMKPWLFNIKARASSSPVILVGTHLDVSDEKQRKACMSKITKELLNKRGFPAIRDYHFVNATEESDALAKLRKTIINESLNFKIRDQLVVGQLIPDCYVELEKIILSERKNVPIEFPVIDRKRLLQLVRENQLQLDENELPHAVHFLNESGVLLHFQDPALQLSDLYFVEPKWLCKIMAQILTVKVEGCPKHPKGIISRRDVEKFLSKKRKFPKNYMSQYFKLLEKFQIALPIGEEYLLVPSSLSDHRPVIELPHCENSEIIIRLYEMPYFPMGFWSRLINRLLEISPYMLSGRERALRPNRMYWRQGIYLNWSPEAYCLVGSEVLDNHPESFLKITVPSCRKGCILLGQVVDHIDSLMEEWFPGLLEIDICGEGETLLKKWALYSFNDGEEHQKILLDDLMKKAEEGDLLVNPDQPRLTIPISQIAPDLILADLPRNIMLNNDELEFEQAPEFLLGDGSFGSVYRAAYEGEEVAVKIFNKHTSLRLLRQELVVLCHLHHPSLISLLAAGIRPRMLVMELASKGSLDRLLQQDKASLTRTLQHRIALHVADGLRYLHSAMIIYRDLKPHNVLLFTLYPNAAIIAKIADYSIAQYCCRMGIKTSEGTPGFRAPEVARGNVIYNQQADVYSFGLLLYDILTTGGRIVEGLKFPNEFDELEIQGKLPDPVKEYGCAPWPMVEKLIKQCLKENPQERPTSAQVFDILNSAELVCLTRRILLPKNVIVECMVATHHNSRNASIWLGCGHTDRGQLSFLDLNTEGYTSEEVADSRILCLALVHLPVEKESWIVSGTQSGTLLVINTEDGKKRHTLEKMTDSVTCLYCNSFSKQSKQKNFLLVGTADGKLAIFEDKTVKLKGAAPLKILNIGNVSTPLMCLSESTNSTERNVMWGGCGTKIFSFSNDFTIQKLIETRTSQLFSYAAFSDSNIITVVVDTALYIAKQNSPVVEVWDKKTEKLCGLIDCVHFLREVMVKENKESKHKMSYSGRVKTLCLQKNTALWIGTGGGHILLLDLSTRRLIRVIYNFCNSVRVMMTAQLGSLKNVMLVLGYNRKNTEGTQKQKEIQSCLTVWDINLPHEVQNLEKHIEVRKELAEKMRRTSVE
row,Ki [nM],Compound
1,48,"CNc1nc(Nc2cn(C(C)C)nc2C)ncc1C#N [Example 352, 2-(1-isopropyl-3-methyl-1H-pyrazol-4-ylamino)-4-(methylamino) pyrimidine-5-carbonitrile]"
2,2.5,"CNc1nc(Nc2cnn(-c3ccc(Cl)cc3)c2C)ncc1C#N [Example 369, 2-(1-(4-chlorophenyl)-5-methyl-H-pyrazol-4-ylamino)-4-(methylamino) pyrimidine-5-carbonitrile]"
3,35,"CNc1nc(Nc2cn(C(F)F)nc2C)ncc1C#N [Example 365, 2-(1-(difluoromethyl)-3-methyl-1H-pyrazol-4-ylamino)-4-(methylamino) pyrimidine-5-carbonitrile]"
4,1.8,"CNc1nc(Nc2cn(-c3cc(F)cc(F)c3)nc2C)ncc1C#N [Example 367, 2-(1-(3,5-difluorophenyl)-3-methyl-1H-pyrazol-4-ylamino)-4-(methylamino) pyrimidine-5-carbonitrile]"

# Same assay, conditions: Table 10; LRRK2 Ki (micromolar); read-out: LRRK2 Ki (KI)
row,Ki [nM],Compound
1,22,"CNc1nc(Nc2cn([C@@H](C)C(=O)N3CCCC3)nc2C)ncc1C(F)(F)F [Example 405, (S)-2-(3-methyl-4 (4-(methylamino)-5-(trifluoromethyl)pyrimidin-2-ylamino)-1H-pyrazol-1-yl)-1-(pyrrolidin-1-yl)propan-1-one]"
2,9.5,"CCNC(=O)C(C)(C)n1cc(Nc2ncc(C(F)(F)F)c(NC)n2)c(C)n1 [Example 440, N-Ethyl-2-[3-methyl-4-(4-methylamino-5-trifluoromethyl-pyrimidin-2-ylamino)-pyrazol-1-yl]-isobutyramide]"
3,4.7,"CNc1nc(Nc2cn(C(C)(C)C(=O)OC)nc2C)ncc1C(F)(F)F [Example 408, methyl 2-methyl-2-(3-methyl-4-(4-(methylamino)-5-(trifluoromethyl)pyrimidin-2-ylamino)-1H-pyrazol-1-yl)propanoate]"

# Same assay, conditions: read-out: LRRK2 Ki (KI), Table 7
row,Ki [nM],Compound
1,16,"CNc1nc(Nc2cc(C(C)C)nn2C)ncc1Cl [Example 42, 5-Chloro-N^2-(5-isopropyl-2-methyl-2H-pyrazol-3-yl)-N^4-methyl-pyrimidine-2,4-diamine]"
2,96,"CNc1nc(Nc2c(C)nn(C)c2C)ncc1C(F)(F)F [Example 10, N^4-methyl-5-(trifluoromethyl)-N^2-(1,3,5-trimethyl-1H-pyrazol-4-yl)pyrimidinc-2,4-diamine]"
3,267,"CNc1nc(Nc2ccnn2C)ncc1F [Example 35, 5-Fluoro-N^4-methyl-N^2-(2-methyl-2H-pyrazol-3-yl)-pyrimidine-2,4-diamine]"
4,33,"CC(C)n1cc(Nc2ncc(Cl)c(OC3CCOCC3)n2)cn1 [Example 11, 5-Chloro-N-(1-isopropyl-1H-pyrazol-4-yl)-4-(tetrahydro-2H-pyran-4-yloxy)pyrimidin-2-amine]"

# Same assay, conditions: read-out: LRRK2 Ki (KI), Table 8
row,Compound,Ki [nM]
1,"CNc1nc(Nc2cnn(C3CCN(CC(F)(F)F)CC3)c2C)ncc1Br [Example 93, 5-bromo-N4-methyl-N2-(5-methyl-1-(1-(2,2,2-trifluoroethyl)piperidin-4-yl)-1H-pyrazol-4-yl)pyrimidine-2,4-diamine]",1.4
2,"CNc1nc(Nc2cnn(-c3ccc(Cl)cc3)c2C)ncc1Br [Example 122, 5-bromo-N2-(1-(4-chlorophenyl)-5-methyl-1H-pyrazol-4-yl)-N4-methylpyrimidine-2,4-diamine]",14
3,"CCNc1nc(Nc2cn(C3CCN(C(=O)C4CC4)CC3)nc2C)ncc1C(F)(F)F [Example 183, cyclopropyl(4-(4-(4-(ethylamino)-5-(trifluoromethyl)pyrimidin-2-ylamino)-3-methyl-1H-pyrazol-1-yl)piperidin-1-yl)methanone]",0.6
4,"CCNc1nc(Nc2cn(C3COC3)nc2C)ncc1Cl [Example 98, 5-chloro-N4-ethyl-N2-(3-methyl-1-(oxetan-3-yl)-1H-pyrazol-4-yl)pyrimidine-2,4-diamine]",3.1
5,"CNc1nc(Nc2cn(C3CC(C)OC(C)C3)nc2C)ncc1C(F)(F)F (centres unmarked) [Example 191, N2-(1-(2,6-dimethyltetrahydro-2H-pyran-4-yl)-3-methyl-1H-pyrazol-4-yl)-N4-methyl-5-(trifluoromethyl) pyrimidine-2,4-diamine]",84.6
6,"CCNc1nc(Nc2cn(C)nc2C2CCC2)ncc1C(F)(F)F [Example 281, N2-(3-Cyclobutyl-1-methyl-1H-pyrazol-4-yl)-N4-ethyl-5-trifluoromethyl-pyrimidine-2,4-diamine]",1.3
7,"CNc1nc(Nc2cnn(C(F)F)c2C)ncc1Br [Example 255, 5-Bromo-N2-(1-difluoromethyl-5-methyl-1H-pyrazol-4-yl)-N4-methyl-pyrimidine-2,4-diamine]",0.7
8,"CNc1nc(Nc2cn(Cc3ccccn3)nc2C)ncc1C(F)(F)F [Example 213, N4-methyl-N2-(3-methyl-1-(pyridin-2-ylmethyl)-1H-pyrazol-4-yl)-5-(trifluoromethyl) pyrimidine-2,4-diamine]",2.9
9,"CNc1nc(Nc2cn([C@H]3CCN(C4COC4)C3)nc2C)ncc1C(F)(F)F [Example 276, N4-Methyl-N2-[3-methyl-1-((S)-1-oxetan-3-yl-pyrrolidin-3-yl)-1H-pyrazol-4-yl]-5-trifluoromethyl-pyrimidine-2,4-diamine]",3.9
10,"CCNc1nc(Nc2cn(-c3ccc(S(C)(=O)=O)cc3)nc2C)ncc1C(F)(F)F [Example 266, N4-Ethyl-N2-[1-(4-methanesulfonyl-phenyl)-3-methyl-1H-pyrazol-4-yl]-5-trifluoromethyl-pyrimidine-2,4-diamine]",2.1
11,"CCNc1nc(Nc2cnn(S(=O)(=O)C(C)C)c2C)ncc1C(F)(F)F [Example 279, N4-Ethyl-N2-[5-methyl-1-(propane-2-sulfonyl)-1H-pyrazol-4-yl]-5-trifluoromethyl-pyrimidine-2,4-diamine]",4.7
12,"CCNc1nc(Nc2ccn(CC)n2)ncc1C(F)(F)F [Example 186, N4-ethyl-N2-(1-ethyl-1H-pyrazol-3-yl)-5-(trifluoromethyl) pyrimidine-2,4-diamine]",1.9
13,"CCNc1nc(Nc2cn(C(C)(C)c3ncn(C)n3)nc2C)ncc1C(F)(F)F [Example 338, N4-ethyl-N2-(3-methyl-1-(2-(1-methyl-1H-1,2,4-triazol-3-yl)propan-2-yl)-1H-pyrazol-4-yl)-5-(trifluoromethyl) pyrimidine-2,4-diamine]",0.3
14,"CCNc1nc(Nc2cn(C3CCC(=O)NC3)nc2C)ncc1C(F)(F)F (centres unmarked) [Example 262, 5-[4-(4-Ethylamino-5-trifluoromethyl-pyrimidin-2-ylamino)-3-methyl-pyrazol-1-yl]-piperidin-2-one]",1.3
15,"CNc1nc(Nc2cn(Cc3ccn(C)n3)nc2C)ncc1C(F)(F)F [Example 325, N4-Methyl-N2-[3-methyl-1-(1-methyl-1H-pyrazol-3-ylmethyl)-1H-pyrazol-4-yl]-5-trifluoromethyl-pyrimidine-2,4-diamine]",3.8

# Results, then the molecule that gave them:
row,Ki [nM],Compound
1,14,"CNc1nc(Nc2cnn(C)c2C(C)C)ncc1C(F)(F)F [Example 223, N2-(5-isopropyl-1-methyl-1H-pyrazol-4-yl)-N4-methyl-5-(trifluoromethyl) pyrimidine-2,4-diamine]"
2,1.7,"CNc1nc(Nc2cnn(CC(C)(C)C#N)c2Cl)ncc1C(F)(F)F [Example 313, 3-[5-Chloro-4-(4-methylamino-5-trifluoromethyl-pyrimidin-2-ylamino)-pyrazol-1-yl]-2,2-dimethyl-propionitrile]"
3,3.2,"CNc1nc(Nc2cnn(C)c2C#N)ncc1C(F)(F)F [Example 215, 1-methyl-4-(4-(methylamino)-5-(trifluoromethyl)pyrimidin-2-ylamino)-1H-pyrazole-5-carbonitrile]"
4,5.1,"CNc1nc(Nc2cnn(C3CCOC3)c2C)ncc1C(F)(F)F (centres unmarked) [Example 150, N4-methyl-N2-(5-methyl-1-(tetrahydrofuran-3-yl)-1H-pyrazol-4-yl)-5-(trifluoromethyl) pyrimidine-2,4-diamine]"
5,2.9,"CNc1nc(Nc2cn(S(C)(=O)=O)nc2C)ncc1C(F)(F)F [Example 102, N4-methyl-N2-(3-methyl-1-(methylsulfonyl)-1H-pyrazol-4-yl)-5-(trifluoromethyl) pyrimidine-2,4-diamine]"
6,1.2,"CNc1nc(Nc2cnn(CC3CC3)c2C)ncc1C(F)(F)F [Example 165, N2-(1-(cyclopropyl-methyl)-5-methyl-1H-pyrazol-4-yl)-N4-methyl-5-(trifluoromethyl) pyrimidine-2,4-diamine]"
7,1.5,"CNc1nc(Nc2cnn(Cc3cccc(C)n3)c2C)ncc1C(F)(F)F [Example 314, N4-Methyl-N2-[5-methyl-1-(6-methyl-pyridin-2-ylmethyl)-1H-pyrazol-4-yl]-5-trifluoromethyl-pyrimidine-2,4-diamine]"
8,3.6,"CCNc1nc(Nc2cnn(C)c2C2CCC2)ncc1C(F)(F)F [Example 280, N2-(5-Cyclobutyl-1-methyl-1H-pyrazol-4-yl)-N4-ethyl-5-trifluoromethyl-pyrimidine-2,4-diamine]"
9,52.2,"CNc1nc(Nc2cnn(C)c2NC)ncc1C(F)(F)F [Example 194, N4-methyl-N2-(1-methyl-5-(methylamino)-1H-pyrazol-4-yl)-5-(trifluoromethyl) pyrimidine-2,4-diamine]"
10,47,"CNc1nc(Nc2cnn(C3CCS(=O)(=O)CC3)c2C)ncc1C(F)(F)F [Example 196, N4-methyl-N2-(5-methyl-1-(tetrahydro-2H-1,1-dioxo-thiopyran-4-yl)-1H-pyrazol-4-yl)-5-(trifluoromethyl) pyrimidine-2,4-diamine]"

# Same assay, conditions: read-out: LRRK2 Ki given in the example
row,Ki [nM],Compound
1,17,"CNc1nc(Nc2cnn(C)c2C)ncc1Br [Example 89, 5-Bromo-N^2-(1,5-dimethyl-1H-pyrazol-4-yl)-N^4-methylpyrimidine-2,4-diamine]"
2,160,"CNc1nc(Nc2cc(C(=O)N3CCOCC3)nn2C)ncc1Cl [Example 393, (5-(5-chloro-4-(methylamino)pyrimidin-2-ylamino)-1-methyl-1H-pyrazol-3-yl)(morpholino)methanone]"
